Test system: edema caused by intradermal injection of recombinant human IL-1β in the mouse ear
Assay: IL-1β-induced ear edema with centrally administered α-MSH and receptor antagonists
Type: in vivo, BALB/c mice
Details: α-MSH(1-13) given centrally with propranolol injected centrally
Experimental: See Macaluso, A., McCoy, D., Ceriani, G., Watanabe, T., Biltz, J., Catania, A., and Lipton, J. M., Anti-inflammatory Influences of a-MSH Molecules: Central Neurogenic and Peripheral Actions, 14(4), J. of Neuroscience 2377-2382 (1994). Female BALB/c mice (Simonsen Laboratories, Gilroy, Calif.), 7-8 weeks old, were housed at 23-25° C. in groups not exceeding five animals per cage [28 cm (L)×18 cm (W)×13 cm (H)]. Before the experiments they were acclimatized for not less than 1 week before experimentation to standard lighting and temperature conditions with food and water freely available.
Mice were anesthetized with 10% pentobarbital sodium solution (1 mg/mouse, 50 mg/ml, Nembutal sodium solution; Abbott Laboratories, North Chicago, Ill.). Baseline ear thickness measurements were taken with a spring-loaded micrometer (Swiss Precision Instruments, Los Angeles, Calif.). Ear thickness was expressed in centimeters and was measured at least twice at each time point. The average thickness of unstimulated ears was […]. Inflammation was induced by injecting 20 μl of recombinant human IL-1β (1500 U; Genzyme, Cambridge, Mass.) directly into the skin (intradermally) of one ear of each mouse using a 28 gauge needle (Hiltz et al., 1992). Measures of ear thickness were repeated 4 and 6 hr later, while the mice were under sodium pentobarbital anesthesia.
Several agents were administered at the time of ear challenge to pharmacologically block certain receptors: atropine (Sigma Chemical Co.; 150 μg i.p.), a muscarinic receptor blocker that acts on autonomic end-organ receptors, was chosen because of links between inflammation and modulation of pain and the finding that muscarinic antagonists increase pain threshold (Hartvig et al., 1989); phentolamine (Sigma; 150 μg i.p.) an agent that competes for occupancy of α-adrenergic receptors; propranolol (Sigma; 150 μg, i.p.; 30 μg, i.c.v.), a nonspecific competitive antagonist for β-adrenergic receptors.
Because of the size of the experiments and the requirement for several shipments of animals over time, several experiments were performed, each with complete treatment and control groups drawn from the same shipment of mice. Omnibus analysis of variance techniques (Dynastat, Washington, D.C.) were used to test overall differences among group means. Tukey's protected t test was used to compare individual means. Probability values of <0.05 were considered significant.

SYSMEHFRWGKPV [α-MSH(1-13)]
inhibition of ear edema by α-MSH (4 hr): 36%
inhibition of ear edema by α-MSH (6 hr): 32%
